# Key:
# [1] = Dynamic moisture sorption (DMS); format: physicochemical; details: for total moisture uptake between 5 and 90% RH: 25° C.
# Procedure: Dynamic moisture sorption (DMS) measurement was performed using a VTI atmospheric microbalance, SGA-100 system (VTI Corp., Hialeah, Fla. 33016). A weighed sample was used and the humidity was lowest possible value (close to 0% RH) at the start of the analysis. The DMS analysis consisted of an initial drying step (0% RH) for 120 minutes, followed by two cycles of sorption and desorption with a scan rate of 5% RH/step over the humidity range of 5% RH to 90% RH. The DMS run was performed isothermally at 25° C. The total moisture uptake between 5 and 90% RH was 1.96%.
# The DMS analysis consisted of an initial drying step (0% RH) for 120 minutes, followed by two cycles of sorption and desorption with a scan rate of 5% RH/step over the humidity range of 5% RH to 90% RH. The DMS run was performed isothermally at 25° C. The total moisture uptake between 5 and 90% RH was about 0.02%.
# in vitro = in vitro ADME; details: human, microsomes, pH 7.4, HLM Clint
# Procedure: Assay 17: Human Liver Microsome Assay The objective of this assay was to assess the metabolic stability of test compounds in an in vitro human liver sub-fraction. Human liver microsomes obtained from Bioreclamation-IVT (Baltimore, Md.) were thawed on ice and diluted into 0.1M potassium phosphate buffer pH 7.4 to yield final incubation protein concentrations of 0.1 mg/mL. […] Incubations were conducted at 37° C. temperature and test aliquots were taken at time points 0, 5, 8, 15, 30 and 45 minutes. […] The resulting samples were injected onto an LC-MS/MS system for analysis. For each incubation, the peak area of the analytes in each t0 aliquot was set to 100% and the peak areas from subsequent time point aliquots were converted to percentage of parent compound remaining relative to t0. The percentage of parent compound remaining was converted to natural log scale and plotted versus time in minutes. A linear regression analysis was performed for the initial decline of the parent disappearance profile and a formula for the best-fit line determined. The slope of the resultant line was normalized to protein concentration in mg/mL protein or number of cells/mL and CLint was calculated as follows for liver microsomes: CLint (μL·min^−1·mg^−1)=(Slope×1000)/[protein,mg/mL]
compound,measurement,setting,value
CCS(=O)(=O)N1[C@@H]2CCC[C@H]1C[C@H](N(C)c1nc(CO)c(F)c(Nc3cc(C)[nH]n3)n1)C2 [Form I],total moisture uptake between 5 and 90% RH,[1],1.96%
CCS(=O)(=O)N1[C@@H]2CCC[C@H]1C[C@H](N(C)c1nc(CO)c(F)c(Nc3cc(C)[nH]n3)n1)C2 [Form II],hygroscopicity (in words),[1],non-hygroscopic
same,total moisture uptake between 5 and 90% RH,[1],about 0.02%
"Cc1cc(Nc2cc(CO)nc(N(C)[C@@H]3C[C@H]4CC[C@@H](C3)N4CCC#N)n2)n[nH]1 [Compound C-2, 3-((1R,3s,5S)-3-((4-(hydroxymethyl)-6-((5-methyl-1H-pyrazol-3-yl)amino)pyrimidin-2-yl)(methyl)amino)-8-azabicyclo[3.2.1]octan-8-yl)propanenitrile, reference compound]",microsomal CLint at 0.1 μM,in vitro,12 µL/min/mg
"CCS(=O)(=O)N1[C@@H]2CCC[C@H]1C[C@H](N(C)c1nc(Nc3cc(C)[nH]n3)cc(C(N)=O)n1)C2 [Compound C-1, 2-(((1R,3s,5S)-9-(ethylsulfonyl)-9-azabicyclo[3.3.1]nonan-3-yl)(methyl)amino)-6-((5-methyl-1H-pyrazol-3-yl)amino)pyrimidine-4-carboxamide, reference compound]",microsomal CLint at 0.1 μM,in vitro,6 µL/min/mg

# From patent publication US10774080B2, “Pyrimidine compound as JAK kinase inhibitor” (THERAVANCE BIOPHARMA R&D IP, LLC, priority 2017, dated 2020)
